Tests used:
[1] = Metal ion sensing: fluorescence titration and selectivity experiments; type: physicochemical; conditions: for fluorescence at 580 nm upon addition of Sn^2+ / selectivity: metal ions that turn on fluorescence / fluorescence of probe solution without metal ion: 20 μM in ethanol-water (1:1, v/v, pH 7.04); for fluorescence at 580 nm upon addition of Sn^2+: Sn^2+ 0-20 eq; for fluorescence at 580 nm upon addition of Sn^2+ / selectivity: metal ions that turn on fluorescence / fluorescence enhancement with other transition and heavy metal ions: excitation 560 nm; for fluorescence of probe solution without metal ion: no Sn^2+; for fluorescence enhancement with other transition and heavy metal ions: K^+, Ag^+, Ca^2+, Mg^2+, Zn^2+, Pb^2+, Ni^2+, Mn^2+, Co^2+, Cd^2+, Hg^2+, 20 μM probe
Procedure: The procedure for metal ion sensing is described. Solutions of the metal ions (10.0 mM) are prepared in deionized water. […] Sn^2+ stock solution is added into the quartz optical cell gradually by micro-pipette. Spectral data is recorded at 5 min after addition. […] For fluorescence measurements, excitation is provided at 560 nm, while emission is collected from 565 to 700 nm. Metal ion response is described. Fluorescent ‘turn on’ probe is conducive for detection target. […] High-level selectivity is of paramount importance for an excellent chemosensor. […] Metal ion response of R1 and R2 are suited for detection of Sn^2+ in living Streptococcus mutans cells.

[2] = pH titration of fluorescence; type: physicochemical; conditions: 10 μM in PBS, emission 580 nm, excitation 560 nm
Procedure: pH titration of Compounds R1 and R2 is described. Stock solutions of Compounds R1 and R2 are respectively added to sodium phosphate buffers of various pH to a final concentration of 10 μM. The fluorescence emission spectra are recorded as a function of pH using λex at 560 nm. The titration curves are plotted by fluorescence emission intensities at 580 nm versus pH.
The impact of pH values on fluorescence is described. The pirolactam ring of the rhodamine derivatives will open in a certain pH range and indicates the fluorescence of rhodamine. It is therefore necessary to check the fluorescence properties of Compounds R1 and R2 in solutions with different pH values. Furthermore, in the cell, the acidity of different organelles may vary greatly. For example, the normal pH of lysosomes is 4.5-5.5, which may induce ring opening of R1 or R2. Considering the application of Sn^2+ probe R1 and R2 intracellular or extracellular may be disturbed by the pH, the acid-base titration experiments are carried out by adjusting the pH with an aqueous solution of NaOH and HCl in Phosphate-Buffered Saline (“PBS”) (FIG. 2 a and b). […] It is predicted that R1 will be turned on by lysosomes in cell without Sn^2+ present. FIGS. 2a and 2b show the dependence of fluorescence at 580 nm of comparative Compound R1 and inventive Compound R2 (10 μM) at different pH in PBS solution. Excitation was at 560 nm.

lysosomes of KB cells = experiment: Colocalization experiment with LysoTracker Green DND in KB cells; type: cell-based; conditions: 50 μM Sn^2+, 10 μM probe, 1 μM LysoTracker Green DND, 30 min each
Procedure: Colocalization experiments are described. 50 μM SnF2 in the culture media is added to the cells. The cells are incubated at 37° C. for 30 min, and washed with PBS three times to remove the excess SnF2. After washing with PBS (2 mL×3) to remove the excess SnF2, the cells are treated with 10 μM of Compound R1 or R2 separately for 30 min, and washed with PBS three times to remove the excess probe and bathed in PBS (2 mL) before imaging. Cell imaging is then carried out as the former. After washing with PBS (2 mL×3) to remove the excess probes, the cells were treated with 1.0 μM LysoTracker® Green DND at 37° C. for 30 min. Cell imaging is then carried out as the former.
Firstly, the KB cells are stained with 50 μM Sn^2+ at 37° C. for 30 min, and then separately incubated with 10 μM of Compound R1 and 1 μM LysoTracker® Green DND or Compound R2 and 1 μM LysoTracker® Green DND under the same conditions. […] There is no fluorescence in other intracellular sites. […] This may be a transmission path of Sn. […] Many pharmaceutical agents, including various large and small molecules, must be delivered specifically to particular cell organelles in order to efficiently exert their therapeutic action. Such delivery is still mainly an unresolved problem, but targeting detection is helpful attempt. […]

[3] = tested on: Streptococcus mutans (ATCC® 700610™); experiment: Fluorescence imaging of Sn^2+ in bacteria (confocal); type: cell-based; conditions: for fluorescence change in Streptococcus mutans after incubation with Sn^2+: 10 μM probe 60 min at 37° C., then 50 μM Sn^2+; for fluorescence in Streptococcus mutans without Sn^2+ present: 10 μM probe, 37° C., 60 min, no Sn^2+
Procedure: Cell culture preparation is described. The KB cell line was provided by of Biochemistry and Cell Biology (China). Cells are grown in MEM (Modified Eagle's Medium) supplemented with 10% FBS (Fetal Bovine serum) and 5% CO2 at 37° C. Cell ([…]) are plated on […] glass coverslips and allowed to adhere for 24 hours. The Streptococcus mutans (ATCC® 700610™) is prepared by inoculating the single colony from the BHI (Brain-Heart Infusion) agar plate into 5 mL BHI broth and incubating at 37° C. for 48 h.
For fluorescence imaging of Sn^2+ in bacteria is described. Freshly diluted Streptococcus mutans (ATCC® 700610™) is sub cultured in the presence of the 10 μM Compound R1 or R2, separately at 37° C. on a shaker bed at 400 rpm for 60 min. Then the bacteria are collected by centrifugation at 8,000 rpm for 2 min and rinsed with Saline (pH=7.0). The process is repeated three times before imaging. After washing with Saline (2 mL×3) to remove the excess probes, the bacteria is cultured in the presence of the 50 μM SnF2 at 37° C. on a shaker bed at 400 rpm for 60 min. Then the bacteria are collected by centrifugation at 8,000 rpm for 2 min and rinsed with Saline (pH=7.0). The process was repeated three times before imaging. The light source is at =543 nm provided excitation and emission are collected in the range=560-660 nm.
Turning to FIGS. 5a and 5b, fluorescence imaging of Sn^2+ in bacteria is described. FIGS. 5a and 5b show simplified illustrations derived based upon CLSM. The illustrations are not drawn to scale but rather enlarged for illustrative purposes. It has been reported that Sn^2+ can inhibit metabolism of Streptococcus mutans. The practical applicability of Compounds R1 and R2 as a Sn^2+ probe in the fluorescence imaging of living Streptococcus mutans (ATCC® 700610™) are investigated. Firstly, the Streptococcus mutans (ATCC® 700610™) are separately stained with 10 μM Compound R1 or R2 at 37° C. for 60 min.
FIGS. 5a and 5b show simplified illustrations derived based upon CLSM images of Streptococcus mutans (ATCC® 700610™). The illustrations are not drawn to scale but rather enlarged for illustrative purposes. (a1-c1) and (a2-c2) Cells are separately incubated with 10 μM comparative Compound R1 and inventive Compound R2 for 30 min, (d1-f1) and (d2-f2) followed incubated with 50 μM SnF2 for 30 min. Emission is collected in red channel at 560-660 nm (b1, e1, b2, e2); a1, d1, a2, d2 are bright field images and c1, f1, c2, f2 are overlay images, respectively (λex=543 nm).

Molecule | fluorescence at 580 nm upon addition of Sn^2+ [1] | selectivity: metal ions that turn on fluorescence [1] | fluorescence of probe solution without metal ion [1] | fluorescence enhancement with other transition and heavy metal ions [1] | pH range for inducing fluorescence turning on [2] | colocalization of probe fluorescence with LysoTracker Green DND (lysosomes of KB cells) | fluorescence change in Streptococcus mutans after incubation with Sn^2+ [3] | fluorescence in Streptococcus mutans without Sn^2+ present [3]
CCN(CC)c1ccc2c(c1)Oc1cc(N(CC)CC)ccc1C21c2ccccc2C(=O)N1NC(=O)OC(C)(C)C [Compound R2] | turned on and grown drastically | tuning on just in the presence of Sn^2+ and Cr^3+ | non-fluorescent | minimal enhancement | 2-4.5 pH | overlap with LysoTracker® Green DND very well | significant fluorescence increasing | no fluorescence emission
Spiro[1H-isoindole-1,9′-[9H]xanthen]-3(2H)-one, 2-[2-[bis(2-hydroxyethyl)amino]amino]ethyl]-3′,6′-bis(diethylamino) [Compound R1] | turned on and grown drastically | tuning on just in the presence of Sn^2+ and Cr^3+ | non-fluorescent | minimal enhancement | 2.5-6 pH | overlap with LysoTracker® Green DND very well | significant fluorescence increasing | no fluorescence emission
